Assay results taken from patent US12516087B2, “Methods and compositions comprising therapeutic gamma peptide nucleic acid-based molecules” (UNIVERSITY OF IOWA RESEARCH FOUNDATION, priority 2022, dated 2026).
No end group written: not given here.

Tested on: endothelial cells (HUVECs)
Assay: Binding of TAMRA-labelled γPNA to cells (fluorescence intensity)
Assay type: cell-based, human
Conditions: 30 minutes incubation, fluorescence intensity normalized to protein
Experimental: FIGS. 11A and 11B. […] The cells were incubated with TAMRA-e-γP-122-I or TAMRA-γP-122-I for 30 minutes, washed three times, lysed, and the fluorescence intensity was measured and normalized to protein. RFI: Rhodamine (5-TAMRA) fluorescence intensity (561/600).
The inventors generated an endothelial cell targeting version of the disclosed γ-PNA inhibitors of miR-122 by fusing the peptide VHPK (SEQ ID NO: 4) to the γ-PNAs of the instant disclosure (“VHPK-γ-PNA fusion”). VHPK binds to vascular cell adhesion molecule 1 (VCAM1) which is highly expressed on the surface of endothelial cells.

## TAMRA-e-γP-122-I: endothelial cell targeting γ-PNA miR-122 inhibitor fused to peptide VHPK (SEQ ID NO: 4), TAMRA-labelled (VHPKQHRQQSKQC; also: fused to γ-PNA miR-122 inhibitor, TAMRA-labelled, place not given here)
  binding to endothelial cells (HUVECs) versus untagged γ-PNA: Increased binding
  binding to endothelial cells versus HEK-293 cells: increased binding to endothelial cells as compared to human embryonic kidney (HEK-293) cells
Listed as VHPK-γ-PNA fusion
  binding to endothelial cells (HUVECs) versus untagged γ-PNA: increased binding
